The source of these data is patent EP0579833B1, “ETHANOLAMINE DERIVATIVES WITH ANTI-POLLAKIURIA ACTIVITY” (FUJISAWA PHARMACEUTICAL CO., LTD., priority 1991, dated 1992).

The subject of test [1] is isolated rat distal colon. In words: Effect on isolated rat distal colon (spontaneous contractions, organ bath). It is filed as tissue-based. The following applies: spontaneous contractions of distal colon strip from male SD rats, Tyrode solution, 37°C, 0.5 g tension, observed over 30 minutes. Here is the method:
Male SD rats (l80∼230 g) were used. Animals were fasted for 24 hours prior to experiment. Distal colon was removed immediately after sacrifice and placed in an organ bath containing 25 ml Tyrode solution aerating with 95% O2, 5% CO2 at 37°C. The strip was mounted under 0.5 g tension and spontaneous contractions were recorded isometrically. After the motility was of a uniform size, test compound was added to an organ bath and the contractions were observed over a 30 minutes period. Effect of test compound was calculated by comparing contractions before and after test compound.

For test [2], the system named is isolated non-pregnant rat uterus. As to the kind of experiment: Effect on isolated non-pregnant rat uterus (spontaneous contractions, organ bath). Also on record: species or system tissue. Conditions: spontaneous contractions of uterine horn strip from estradiol-treated female SD rats, Locke solution, 37°C, 1 g tension, observed over 20 minutes. How it is done: Female SD rats (l50∼l80 g) were used. 48 and 24 hours prior to use, rats were given estradiol (ovahormon benzoat : Trademark, Teikoku Hormone Mfg. Co., Ltd.) subcutaneously at a dose of 40 µg/rat to induce oestrus. The animals were killed and uterine horns were removed. Each strip was placed in an organ bath containing 25 ml Locke solution aerating with 95% O2, 5% CO2 at 37°C under l g tension. Contractions were recorded isometrically. After the spontaneous contractions were of a uniform size, test compound was added to organ bath. The motility was observed over a 20 minutes period. Effect of test compound was calculated by comparing contractions before and after test compound.

As usually defined, the IC50 is the concentration at which inhibition is half-maximal.

For “(1R,1'R,2'R)- and (1R,1'S,2'S)-1-(3-chlorophenyl)-2-[(7-ethoxycarbonylmethoxy-l-hydroxy-l,2,3,4-tetrahydro-2- naphthyl)amino]ethanol hydrochloride [Example 2]”, the IC50 in test [1] worked out at 1.9 nM; in test [2] it was 510 nM.
